US5545545A, “Lysine-insensitive maize dihydrodipicolinic acid synthase” (priority 1993, dated 1996)
Read-outs that look alike come from different tables or passages of the source.

Columns and labels:
[1] = target: T1, wildtype E. coli DHPS from 71-18dapA+ (Escherichia coli, UniProt P0A6L2); experiment: DHPS activity in crude lysate of wildtype 71-18dapA+ cells, with or without lysine; assay type: biochemical
T1 construct: Crude lysates from wildtype 71-18dapA; endogenous in cells; host or cells: E. coli 71-18 (dapA+), crude desalted lysate
Protocol: (§1) Crude lysates from wildtype 71-18dapA^+ cells, AT997dapA^- transformed with pUC13 lacking a cDNA insert, and the five complementing transformant cell lines AT997(pZM DHPS1) to AT997(pZM DHPS5) were assayed for DHPS activity. The transformed cells were grown overnight in M9 medium+100 μM DAP, collected by centrifugation at 5000×g for 10 min and resuspended in 1/10 volume of extraction buffer (100 mM TRIS-HCl, pH 8.0, 100 mM NaCl, 100 mM pyruvate). Cells were placed briefly on ice, disrupted by sonication (60 W, 15 s) and debris removed by centrifugation at 15000×g for 15 min. The supernatant was desalted on a G25 Sephadex column equilibrated with 10 mM TRIS-HCl, pH 8.0 and 1 mM EDTA and used for enzyme assays.
(§2) The DHPS assay buffer (R. M. Wallsgrove et al., Phytochem., 20, 2651 (1981)) contained 100 mM TRIS-HCl, pH 8.0, 10 mM pyruvate, 1.4 mM aspartate semialdehyde neutralized just prior to use, and 100 μl enzyme in a final volume of 250 μl. Tubes were incubated at 37° C. for 30 min and reactions stopped by addition of 1 ml of 0.22M sodium citrate, 0.55M sodium phosphate, pH 5.0 and 0.25 mg/ml-aminobenzaldehyde. The colored reaction product was allowed to form for 3 hr at 37° C. and samples were centrifuged at 10000 g. Activity units (0.001 OD/min) were determined at 520 nm; standard errors of replicate assays were routinely <2% of the mean.

[2] = test system: maize DHPS (cDNA expression product in AT997dapA- transformants); experiment: DHPS activity in crude lysates of AT997dapA- transformants pZM DHPS1 to pZM DHPS5, with or without lysine; assay type: biochemical; conditions: for % Inhibition: 100 μM lysine
Protocol: as §1, §2

[3] = target: T2, Purified DHPS from Black Mexican Sweet maize (Zea mays, UniProt P26259); experiment: DHPS activity of purified maize DHPS, with or without lysine; assay type: biochemical
T2 construct: from tissue; host or cells: Black Mexican Sweet maize suspension cultures (endogenous enzyme, purified more than 4000-fold)
T2 sequence (P26259 55-380): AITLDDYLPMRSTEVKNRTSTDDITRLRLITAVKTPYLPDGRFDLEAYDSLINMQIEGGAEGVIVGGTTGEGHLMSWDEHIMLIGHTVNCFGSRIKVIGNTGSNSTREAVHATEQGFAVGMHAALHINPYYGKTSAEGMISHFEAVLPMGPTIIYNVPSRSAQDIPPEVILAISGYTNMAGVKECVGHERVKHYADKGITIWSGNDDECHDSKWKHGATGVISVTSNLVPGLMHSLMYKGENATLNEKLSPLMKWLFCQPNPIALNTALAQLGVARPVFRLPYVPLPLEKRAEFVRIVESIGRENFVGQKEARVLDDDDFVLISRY
Protocol: as §2
The putative start of the coding region for maize DHPS was established by comparison of the N-terminus amino acid sequence of SDS-PAGE purified DHPS monomer with the amino acid sequence derived from the nucleotide sequence. DHPS was purified more than 4000-fold with 25% recovery from Black Mexican Sweet maize suspension cultures by the procedure of D. A. Frisch et al., Plant Physiol., 96, 444 (1991). Only one protein band (ca. 130000 Mr) was detected by silver-staining after native polyacrylamide gel electrophoresis (PAGE) and this band corresponded to the position of DHPS activity. […]

[4] = target: T3, native Zea mays DHPS (Zea mays, UniProt P26259); experiment: Lysine feedback inhibition of native maize DHPS in vitro; assay type: biochemical; conditions: native Zea mays DHPS / native plant DHP synthase, read-out: I50 of feedback inhibition by lysine
T3 construct: host or cells: maize cells (highly purified DHPS)
T3 sequence (P26259 55-380): T2 sequence (P26259 55-380)
From the text: For example, novel plants resulting from the present method contain extractable lysine levels at least about ten times, and preferably, at least about 50 times, e.g., about 50-250 times higher than plants of the same species which contain only native DHPS.
This difference in lysine sensitivity was an additional indication that the cDNA inserts were from maize and that restoration of DHPS activity in the E. coli mutant was not caused by reversion of the dapA^- allele or due to an interaction with pUC13 plasmid DNA. In preliminary tests of partially purified DHPS from cell line pZM DHPS5, the [I]0.5 value for lysine was determined to be in the range of 20 to 30 μM.

[5] = test system: wildtype maize DHPS (pZM DHPS5B) fusion protein expressed in AT997 E. coli; experiment: Lysine inhibition of partially purified wildtype maize DHPS fusion protein (FIG. 4); assay type: biochemical
Protocol: (§3) AT997 cells (approximately 1 ml packed vol), containing plasmids pZM DHPS5B, pZM DHPS-M1 or pZM DHPS-M2, were extracted by sonication (60 W, 20 s) into 5 ml of ice cold buffer containing (100 mM TRIS-HCl, pH 8.0, 100 mM NaCl, 50 mM pyruvate) and then centrifuged at […] for 10 min. The supernatant was placed in a water bath (60° C.) for 5 min, cooled to 4° C. and centrifuged. The resulting supernatant was desalted on a Sephadex G50 column in 10 mM TRIS-HCl, pH 8.0, and 1 mM EDTA.
(§4) DHPS activity was determined as described in Example 2 except that the reaction was stopped after 2 min; at longer reaction times, activity was not linear with time. The volume of enzyme was adjusted so that the absorbance at 520 nm increased approximately 0.1 A (=100 activity units) after 2 min for standard control assays. Lysine concentrations were varied from 0.01 mM to 1.0 mM in the presence of constant concentrations of the substrates pyruvate (20 mM) and aspartate semialdehyde (1.4 mM). The average of two or three assays were used to determine enzyme activity values and percent inhibition by lysine.

[6] = target: T4, altered maize DHPS (pZM DHPS-M1) fusion protein expressed in AT997 E. coli (Zea mays, UniProt P26259, A166V/R367Q); experiment: Lysine inhibition of partially purified mutant DHPS-M1 fusion protein (FIG. 4); assay type: biochemical
T4 construct: made in house; host or cells: E. coli AT997 dapA- (pZM DHPS-M1), heat-treated, desalted extract
Protocol: as §3, §4

[7] = target: T5, altered maize DHPS (pZM DHPS-M2) fusion protein expressed in AT997 E. coli (Zea mays, UniProt P26259); experiment: Lysine inhibition of partially purified mutant DHPS-M2 fusion protein (FIG. 4); assay type: biochemical; conditions: L-lysine concentrations as high as 1.0 mM
T5 construct: heat-treated, desalted extract
Protocol: as §3, §4

[8] = target: T6, DHPS from wildtype, nontransformed E. coli strain DH5A (Escherichia coli, UniProt P0A6L2); experiment: Lysine inhibition of DHPS from wildtype nontransformed E. coli (FIG. 4); assay type: biochemical; conditions: lysine concentrations up to 1 mM
T6 construct: DHPS from wildtype, nontransformed E. coli strain DH5A; endogenous in cells; host or cells: E. coli DH5A

[9] = target: T7, altered maize DHPS (pZM DHPS-M3, threonine for alanine at position 112) (Zea mays, UniProt P26259, A166T/R367Q); experiment: Lysine sensitivity of DHPS activity of mutant pZM DHPS-M3; assay type: biochemical
T7 construct: the 380 amino acids of the maize cDNA coding region; beta-galactosidase N-terminal residues (5 aa) (N); vector polylinker (18 aa) (N); translated 5' untranslated region of the cDNA (13 aa) (N); made in house; host or cells: E. coli AT997 dapA- (inferred from the repeated mutagenesis and selection protocol)
From the text: (§5) Additional independently derived mutations in maize DHPS were obtained by repeating the mutagenesis and selection protocol in separate experiments. […] Mutant plasmid pZM DHPS-M3 has a nucleotide change at position #496 (ACA instead of GCA); this change causes substitution of threonine for alanine at the same amino acid position (112) as altered in mutant pZM DHPS-M1. Mutant plasmid pZM DHPS-M4 has a nucleotide change at position #484 (AAA instead of GAA); this change causes substitution of lysine for glutamic acid at amino acid position #108.

[10] = target: T8, altered maize DHPS (pZM DHPS-M4, lysine for glutamic acid at position 108) (Zea mays, UniProt P26259, E162K/R367Q); experiment: Lysine sensitivity of DHPS activity of mutant pZM DHPS-M4; assay type: biochemical
T8 construct: the 380 amino acids of the maize cDNA coding region; beta-galactosidase N-terminal residues (5 aa) (N); vector polylinker (18 aa) (N); translated 5' untranslated region of the cDNA (13 aa) (N); made in house; host or cells: E. coli AT997 dapA- (inferred from the repeated mutagenesis and selection protocol)
From the text: as §5

[11] = target: T3, native Zea mays DHPS; conditions: highly purified DHPS from maize cells; Frisch et al., Plant Physiol., 96, 444 (1991); read-out: [I]0.5 value for lysine; cited from earlier work

T4 sequence (P26259 whole entry A166V/R367Q, the tested form may be a part): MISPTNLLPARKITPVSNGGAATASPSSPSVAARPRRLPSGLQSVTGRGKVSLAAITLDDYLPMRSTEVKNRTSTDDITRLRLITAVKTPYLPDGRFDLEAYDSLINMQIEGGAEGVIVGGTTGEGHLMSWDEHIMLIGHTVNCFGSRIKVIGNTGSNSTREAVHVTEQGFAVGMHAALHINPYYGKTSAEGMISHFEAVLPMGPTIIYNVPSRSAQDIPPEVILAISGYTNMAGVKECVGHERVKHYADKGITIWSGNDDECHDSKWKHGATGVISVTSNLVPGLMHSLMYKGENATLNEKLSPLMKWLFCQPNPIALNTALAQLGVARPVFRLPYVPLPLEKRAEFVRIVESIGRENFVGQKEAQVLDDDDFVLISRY
T1 sequence (P0A6L2 whole entry): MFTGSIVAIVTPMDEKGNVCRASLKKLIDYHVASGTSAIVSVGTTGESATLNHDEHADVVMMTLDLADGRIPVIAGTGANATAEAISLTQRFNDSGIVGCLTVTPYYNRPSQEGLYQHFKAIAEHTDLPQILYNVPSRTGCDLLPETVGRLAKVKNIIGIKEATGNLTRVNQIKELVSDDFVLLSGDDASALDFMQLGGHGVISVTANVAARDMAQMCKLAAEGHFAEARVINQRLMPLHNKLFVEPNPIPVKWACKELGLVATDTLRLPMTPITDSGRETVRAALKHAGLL
T7 sequence (P26259 whole entry A166T/R367Q): as the sequence (P26259 whole entry A166V/R367Q, the tested form may be a part) above, with V166T counted along it
T5 sequence (P26259 whole entry, the tested form may be a part): as the sequence (P26259 whole entry A166V/R367Q, the tested form may be a part) above, with V166A, Q367R counted along it
T6 sequence (P0A6L2 whole entry): as the sequence (P0A6L2 whole entry) above
T8 sequence (P26259 whole entry E162K/R367Q): as the sequence (P26259 whole entry A166V/R367Q, the tested form may be a part) above, with E162K, V166A counted along it

For `NCCCC[C@H](N)C(=O)O` [lysine, L-lysine], the “Specific Activity, 100 μM Lysine” value ([1]; 71-18dapA+ crude lysate) was 120 0.001 OD520 /min per milligram, the inhibition at 100 µM ([1]; 71-18dapA+, 100 μM lysine) was 8% and the “Specific Activity, 100 μM Lysine” value ([2]; AT997dapA- (pZM DHPS1)) was 24 0.001 OD520 /min per milligram. For the same compound, the “% Inhibition” value ([2]; AT997dapA- (pZM DHPS1)) was 90%, the “Specific Activity, 100 μM Lysine” value ([2]; AT997dapA- (pZM DHPS2)) was 15 0.001 OD520 /min per milligram and the “% Inhibition” value ([2]; AT997dapA- (pZM DHPS2)) was 91%. For the same compound, the “Specific Activity, 100 μM Lysine” value ([2]; AT997dapA- (pZM DHPS3)) was 22 0.001 OD520 /min per milligram, the “% Inhibition” value ([2]; AT997dapA- (pZM DHPS3)) was 88% and the “Specific Activity, 100 μM Lysine” value ([2]; AT997dapA- (pZM DHPS4)) was 42 0.001 OD520 /min per milligram. The “% Inhibition” value ([2]; AT997dapA- (pZM DHPS4)) was 86%, the “Specific Activity, 100 μM Lysine” value ([2]; AT997dapA- (pZM DHPS5)) was 27 0.001 OD520 /min per milligram and the “% Inhibition” value ([2]; AT997dapA- (pZM DHPS5)) was 90%. The inhibition at 100 µM ([3]; 100 μM lysine) was 97%, the “DHPS activity, 100 μM Lysine” value ([3]; specific activity not determined (footnote b)) was 8 units of DHPS activity and the IC50 [4] was 25 µM. The “inhibition of wildtype maize DHPS activity” value ([5]; 100 μM lysine, E. coli transformants) was “more than 90%”, the “inhibition of DHPS activity by lysine” value ([5]; pZM DHPS5B, lysine concentrations as low as 25 μM) was “significantly inhibited” and the “inhibition of DHPS activity by lysine” value ([6]; DHPS expressed from SEQ ID NO. 1 in E. coli transformants, 1000 μM lysine) was “not inhibited”. For the same compound, the “reduction in sensitivity to lysine versus native Zea mays DHPS” value ([6]; altered Zea mays DHPS of SEQ ID NO. 2) was “more than 400 times”, the “L-lysine level at which altered DHPS is active, relative to native DHPS” value ([6]; altered maize DHPS of the invention, in vitro) was “at least 100 fold” and the “inhibition of DHPS activity by L-lysine” value ([6]; pZM DHPS-M1, L-lysine concentrations as high as 1.0 mM) was “not inhibited”. For the same compound, the “inhibition of DHPS activity by L-lysine” value [7] was “not inhibited”, the “inhibition of DHPS activity by lysine” value [8] was “intermediate level of inhibition” and the “lysine sensitivity of DHPS activity” value [9] was “lysine insensitivity”. For the same compound, the “lysine sensitivity of DHPS activity” value [10] was “lysine insensitivity” and the IC50 [11] was 23 µM.
